In US11512111B2, “Yeats inhibitors and methods of use thereof” (The University of Hong Kong, priority 2017, dated 2022):
“Also recorded” adds a separate entry of the source. Values belong to the compound of their own block, whether it stands above or below them. Residues, ends and D or L forms follow the SMILES beside them. *: point of attachment. Oxazole(5-CO) = O=C(c1cnco1)*; Crotonyl(E) = C/C=C/C(=O)*; 2Furoyl = O=C(c1ccco1)*; Cbz = O=C(OCc1ccccc1)*; X1 = O=C(c1ccoc1)*

Key:
Type in all cases: binding
AF9 YEATS domain [1] = biological target: T1, AF9 YEATS domain (Homo sapiens, UniProt P42568); experiment: Photo-cross-linking-based competition assay (photoaffinity probe, click chemistry, in-gel fluorescence); conditions: for preliminary screening of competitors: inhibitory activity on AF9 YEATS domain: fluorescent signal intensity at 0.3 μM compared with peptide control; for IC50: competition with photoaffinity probe, in-gel fluorescence
T1 construct: His-AF9 (1-138); His (N); made in house; host or cells: E. coli Rosetta
T1 sequence (P42568 1-138): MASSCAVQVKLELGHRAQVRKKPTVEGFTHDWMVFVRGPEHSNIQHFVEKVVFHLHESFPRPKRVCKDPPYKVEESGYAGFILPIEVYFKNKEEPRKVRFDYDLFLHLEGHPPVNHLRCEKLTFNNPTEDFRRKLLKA
Description: Mobile phase used were water with 0.1% trifluoroacetic acid (buffer A) and 90% acetonitrile in water with 0.1% trifluoroacetic acid (buffer B). The purity (>95%) and identity of peptides were confirmed by LC-MS. The inhibitory activities of the inhibitors were determined by a photo-cross-linking-based competition assay. […] The reactions were incubated for 1 h at r.t . . . . The reactions were quenched by adding 5 volumes of ice-cold acetone and placed at −20° C. overnight to precipitate proteins. After protein precipitation, samples were centrifuged at 6000×g for 5 min at 4° C. The supernatant was discarded and the pellet was washed with ice-cooled methanol twice and air-dried for 10 min. […] Samples were then resolved by SDS-PAGE. The labeled proteins were visualized by scanning the gel on a Typhoon 9410 variable mode imager (excitation 532 nm, emission filter 580 nm). A photo-cross-linking based method was used in this study to estimate inhibitory activity (FIG. 28). This method requires the use of a photoaffinity probe. The probe (probe 1 (SEQ ID NO:48), see below) is derived from a crotonylated peptide, ligand of the protein, carrying a photo-cross-linker and a terminal alkyne as bioorthogonal. The YEATS domain is incubated and bound to the probe through Kcr-dependent recognition. Upon UV-irradiation, the photo-cross-linker is activated and rapidly cross-linked to the protein, converting the non-covalent protein-probe interaction into a covalent linkage. The probe-labeled protein is subsequently conjugated to an azide-functionalized fluorescence dye (for example, rhodamine-N3, Rho-N3) via Cu(I)-catalyzed azide-alkyne cycloaddition (CuAAC, or “click” chemistry). After SDS-PAGE, the protein can be visualized by in-gel fluorescence scanning. If photo-cross-linking of the YEATS domain with photoaffinity probe is performed in the presence of an inhibitor, which occupies the Kcr binding pocket of the YEATS domain and thus inhibits the protein-probe interaction, the percentage of the YEATS domain in the sample that is labeled by the probe will be reduced. The in-gel fluorescence intensity detected will also be decreased. By varying the concentration of inhibitor added in the sample and quantifying the resulting fluorescence intensities, a competition curve of the inhibitor toward the protein-probe interaction will be obtained, which can be used to estimate the IC50 value. Due to the covalent nature of photo-cross-linking, weak protein-protein interactions can be captured and eventually visualized. The protein concentration used in the assay can be as low as several nanograms per microliter, while the fluorescence signal can still be robustly detected and quantified.

AF9 YEATS domain [2] = biological target: T1, AF9 YEATS domain; experiment: Isothermal titration calorimetry (ITC); conditions: for Kd / N (sites) / ΔS / ΔH: ITC; for binding enhancement over the native crotonyl group: ITC Kd ratio; for ΔH: Table 3
Description: ^1H and ^13C NMR spectra were recorded on Bruker UltraShield 400 or 600 MHz spectrometers and were calibrated using residual undeuterated solvent as an internal reference. Chemical shifts were reported in ppm, and coupling constant J was reported in Hz. Peptides were analyzed by LC-MS with an Agilent 1260 Infinity HPLC system connected to a Thermo Finnigan LCQ DecaXP MS detector. Peptides were purified on a preparative HPLC system with Waters 2535 Quaternary Gradient Module, Waters 515 HPLC pump, Waters SFO System Fluidics Organizer, and Waters 2767 Sample Manager. Photo-cross-linking was performed with an ENF-260C/FE hand-hang UV lamp (Spectroline). In-gel fluorescence scanning was performed using a Typhoon 9410 variable mode imager from GE Healthcare Life Sciences (excitation 532 nm, emission 580 nm). Images of Coomassie blue staining were acquired by MyECL Imager from Thermo Scientific. All images were processed by ImageJ software (National Institutes of Health), and contrast was adjusted appropriately. ITC experiments were performed with a MicroCal iTC200 titration calorimeter (MicroCal). IC50 and dissociation constants were fit with Origin 7.0 software package (OriginLab).
To further validate the reliability of the results obtained from the photo-cross-linking-based competition assay, we performed isothermal titration calorimetry (ITC) to determine the direct binding affinities of the inhibitors toward the AF9 YEATS domain. […] The ITC measurements were in agreement with the IC50 data, indicating the reliability of the results obtained from the photo-cross-linking-based competition assay.

ENL YEATS domain = biological target: T2, ENL YEATS domain (Homo sapiens, UniProt Q03111); experiment: Photo-cross-linking-based competition assay; conditions: competition with photoaffinity probe, in-gel fluorescence
T2 construct: His-SUMO-ENL (1-138); His (N); SUMO (N); made in house; host or cells: E. coli Rosetta
T2 sequence (Q03111 1-138): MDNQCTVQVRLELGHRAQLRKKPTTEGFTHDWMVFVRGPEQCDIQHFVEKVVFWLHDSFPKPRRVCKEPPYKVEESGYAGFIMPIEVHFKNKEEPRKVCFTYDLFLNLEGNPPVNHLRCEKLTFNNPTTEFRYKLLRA

Compound: 43 (Cbz-QTAKK-NH2; not fully specified (residue 5); also: K5: modified crotonyl group with attached furancarbonyl side chain) [Compound 43]
preliminary screening of competitors: inhibitory activity on AF9 YEATS domain (AF9 YEATS domain [1]): interact with the AF9 YEATS domain weakly

Compound: 45 (Cbz-QTAQK-NH2; not fully specified (residue 5); also: K5: modified crotonyl group with attached furancarbonyl side chain) [Compound 45]
preliminary screening of competitors: inhibitory activity on AF9 YEATS domain (AF9 YEATS domain [1]): interact with the AF9 YEATS domain weakly

preliminary screening of competitors: inhibitory activity on AF9 YEATS domain (AF9 YEATS domain [1]): activity of inhibitor drops
Compound: 65 (Cbz-NTARK-NH2; not fully specified (residue 5); also: K5: modified crotonyl group with attached furancarbonyl side chain) [Compound 65]

IC50 (AF9 YEATS domain [1]): 1.3 µM
Kd (AF9 YEATS domain [2]): 3.3 µM
N (sites) (AF9 YEATS domain [2]): 0.91 ± 0.01 sites
ΔS (AF9 YEATS domain [2]): −15.9 cal/mol/deg
binding enhancement over the native crotonyl group (AF9 YEATS domain [2]): 4.5 fold
ΔH (AF9 YEATS domain [2]): -12.23 ± 0.11 kcal/mol
Compound: C[C@H](NC(=O)[C@@H](NC(=O)[C@H](CCC(N)=O)NC(=O)[C@@H](N)CCCCN)[C@@H](C)O)C(=O)N[C@@H](CCCNC(=N)N)C(=O)N[C@@H](CCCCNC(=O)c1ccco1)C(=O)N[C@@H](CO)C(=O)N[C@H](C(=O)NCC(=O)NCC(N)=O)[C@@H](C)O [Compound 7] (H-KQTARK(2Furoyl)STGG-NH2)

IC50 (AF9 YEATS domain [1]): 1.7 µM
Compound: C[C@H](NC(=O)[C@@H](NC(=O)[C@H](CCC(N)=O)NC(=O)[C@@H](N)CCCCN)[C@@H](C)O)C(=O)N[C@@H](CCCNC(=N)N)C(=O)N[C@@H](CCCCNC(=O)c1ccoc1)C(=O)N[C@@H](CO)C(=O)N[C@H](C(=O)NCC(=O)NCC(N)=O)[C@@H](C)O [Compound 8] (H-KQTARK(X1)STGG-NH2)

IC50 (AF9 YEATS domain [1]): 0.74 µM
Kd (AF9 YEATS domain [2]): 1 µM
N (sites) (AF9 YEATS domain [2]): 1.04 ± 0.02 sites
ΔS (AF9 YEATS domain [2]): −13.8 cal/mol/deg
binding enhancement over the native crotonyl group (AF9 YEATS domain [2]): 14.8 fold
ΔH (AF9 YEATS domain [2]): -12.29 ± 0.376 kcal/mol
Compound: C[C@H](NC(=O)[C@@H](NC(=O)[C@H](CCC(N)=O)NC(=O)[C@@H](N)CCCCN)[C@@H](C)O)C(=O)N[C@@H](CCCNC(=N)N)C(=O)N[C@@H](CCCCNC(=O)c1cnco1)C(=O)N[C@@H](CO)C(=O)N[C@H](C(=O)NCC(=O)NCC(N)=O)[C@@H](C)O [Compound 13] (H-KQTARK(Oxazole(5-CO))STGG-NH2)

IC50 (AF9 YEATS domain [1]): 4.5 µM
Compound: C[C@H](NC(=O)[C@@H](NC(=O)[C@@H](N)CCC(N)=O)[C@@H](C)O)C(=O)N[C@@H](CCCNC(=N)N)C(=O)N[C@@H](CCCCNC(=O)c1ccco1)C(N)=O [Compound 24]

IC50 (AF9 YEATS domain [1]): 0.46 µM
Compound: C[C@H](NC(=O)[C@@H](NC(=O)[C@H](CCC(N)=O)NC(=O)[C@@H](N)CCCCN)[C@@H](C)O)C(=O)N[C@@H](CCCNC(=N)N)C(=O)N[C@@H](CCCCNC(=O)c1ccco1)C(N)=O [Compound 25] (H-KQTARK(2Furoyl)-NH2; N-terminus and C-terminus assumed)

Compound: CC(C)C[C@H](NC(=O)[C@@H](NC(=O)[C@H](CCC(N)=O)NC(=O)OCc1ccccc1)[C@@H](C)O)C(=O)N[C@@H](CCCNC(=N)N)C(=O)N[C@@H](CCCCNC(=O)c1ccco1)C(N)=O [Compound 47] (Cbz-QTLRK(2Furoyl)-NH2; N-terminus and C-terminus assumed)
preliminary screening of competitors: inhibitory activity on AF9 YEATS domain (AF9 YEATS domain [1]; listed as A7-L): comparable results; also recorded: comparable inhibitory activities

Compound: C[C@@H](O)[C@H](NC(=O)[C@H](CCC(N)=O)NC(=O)OCc1ccccc1)C(=O)N[C@@H](Cc1c[nH]c2ccccc12)C(=O)N[C@@H](CCCNC(=N)N)C(=O)N[C@@H](CCCCNC(=O)c1ccco1)C(N)=O [Compound 49] (Cbz-QTWRK(2Furoyl)-NH2; N-terminus and C-terminus assumed)
preliminary screening of competitors: inhibitory activity on AF9 YEATS domain (AF9 YEATS domain [1]; listed as A7-W): comparable results; also recorded: comparable inhibitory activities

preliminary screening of competitors: inhibitory activity on AF9 YEATS domain (AF9 YEATS domain [1]): comparable inhibitory activities
Compound: C[C@H](NC(=O)[C@H](C)NC(=O)[C@H](CCC(N)=O)NC(=O)OCc1ccccc1)C(=O)N[C@@H](CCCNC(=N)N)C(=O)N[C@@H](CCCCNC(=O)c1ccco1)C(N)=O [Compound 53] (Cbz-QAARK(2Furoyl)-NH2; N-terminus and C-terminus assumed)

preliminary screening of competitors: inhibitory activity on AF9 YEATS domain (AF9 YEATS domain [1]): comparable inhibitory activities
Compound: C[C@H](NC(=O)[C@H](CO)NC(=O)[C@H](CCC(N)=O)NC(=O)OCc1ccccc1)C(=O)N[C@@H](CCCNC(=N)N)C(=O)N[C@@H](CCCCNC(=O)c1ccco1)C(N)=O [Compound 55] (Cbz-QSARK(2Furoyl)-NH2; N-terminus and C-terminus assumed)

IC50 (AF9 YEATS domain [1]): 0.226 µM
Compound: C[C@H](NC(=O)[C@@H](NC(=O)[C@H](CCC(N)=O)NC(=O)Cc1ccc2ccccc2c1)[C@@H](C)O)C(=O)N[C@@H](CCCNC(=N)N)C(=O)N[C@@H](CCCCNC(=O)c1ccco1)C(N)=O [Compound 74]
preliminary screening of competitors: inhibitory activity on AF9 YEATS domain (AF9 YEATS domain [1]; listed as Cbz-4): comparable binding affinity; also recorded: comparable inhibitory activities

IC50 (AF9 YEATS domain [1]): 1.8 µM
IC50 (ENL YEATS domain): 43.6 µM
Compound: C[C@@H]1NC(=O)[C@H]([C@H](C)O)NC(=O)[C@@H](NC(=O)OCc2ccccc2)CCCCNC(=N)NCCC[C@H](C(=O)N[C@@H](CCCCNC(=O)c2ccco2)C(N)=O)NC1=O [Compound 78]

IC50 (AF9 YEATS domain [1]): 5.1 µM
IC50 (ENL YEATS domain): 9.23 µM
Compound: C[C@@H]1NC(=O)[C@H]([C@H](C)O)NC(=O)[C@@H](NC(=O)OCc2ccccc2)Cn2cc(nn2)CNC(=N)NCCC[C@H](C(=O)N[C@@H](CCCCNC(=O)c2cnco2)C(N)=O)NC1=O [Compound 82]

IC50 (AF9 YEATS domain [1]): 6 µM
N (sites) (AF9 YEATS domain [2]): 0.96 ± 0.02 sites
ΔS (AF9 YEATS domain [2]): −17.8 cal/mol/deg
ΔH (AF9 YEATS domain [2]): -11.92 ± 0.423 kcal/mol
Compound: C/C=C/C(=O)NCCCC[C@H](NC(=O)[C@H](CCCNC(=N)N)NC(=O)[C@H](C)NC(=O)[C@@H](NC(=O)[C@H](CCC(N)=O)NC(=O)[C@@H](N)CCCCN)[C@@H](C)O)C(=O)N[C@@H](CO)C(=O)N[C@H](C(=O)NCC(=O)NCC(N)=O)[C@@H](C)O [Compound 85, reference compound] (H-KQTARK(Crotonyl(E))STGG-NH2; N-terminus and C-terminus assumed)

IC50 (AF9 YEATS domain [1]): 0.189 µM
Compound: C[C@H](NC(=O)[C@@H](NC(=O)[C@H](CCC(N)=O)NC(=O)OCc1ccccc1)[C@@H](C)O)C(=O)N[C@@H](CCCNC(=N)N)C(=O)N[C@@H](CCCCNC(=O)c1ccco1)C(N)=O [peptide control]
